Experimental findings from US5571825A, “Method of selectively inhibiting prostaglandin G/H synthase-2” (Warner-Lambert Company, priority 1995, dated 1996) are described below.

Experiment [1] addresses T1, prostaglandin G/H synthase-1 (Ovis aries, UniProt P05979).
T1 construct: purified from ram seminal vesicles; from tissue; host or cells: ram seminal vesicles
T1 sequence (P05979 25-600): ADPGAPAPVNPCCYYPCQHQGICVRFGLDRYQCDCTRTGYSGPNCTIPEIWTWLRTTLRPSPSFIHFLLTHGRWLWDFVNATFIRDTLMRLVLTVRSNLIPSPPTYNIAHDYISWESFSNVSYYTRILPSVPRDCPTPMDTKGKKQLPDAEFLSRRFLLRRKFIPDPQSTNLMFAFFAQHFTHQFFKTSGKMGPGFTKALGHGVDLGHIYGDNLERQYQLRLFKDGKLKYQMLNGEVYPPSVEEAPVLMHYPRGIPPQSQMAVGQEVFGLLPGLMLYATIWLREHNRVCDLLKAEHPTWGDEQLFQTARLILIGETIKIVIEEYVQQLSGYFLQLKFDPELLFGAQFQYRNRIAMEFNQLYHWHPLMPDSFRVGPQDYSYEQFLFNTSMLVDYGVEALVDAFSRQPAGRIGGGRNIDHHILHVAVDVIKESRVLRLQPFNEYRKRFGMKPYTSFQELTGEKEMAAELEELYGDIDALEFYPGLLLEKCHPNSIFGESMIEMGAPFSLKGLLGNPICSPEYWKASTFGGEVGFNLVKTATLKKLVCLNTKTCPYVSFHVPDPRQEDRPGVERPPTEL
Kind of experiment: Inhibition of prostaglandin G/H synthase-1 (conversion of [14C]arachidonic acid to products). As to conditions: enzyme purified from ram seminal vesicles, 15 min preincubation, pH 7.4, room temperature. It counts as biochemical. Here is the method:
(§1) The compounds of the present invention were evaluated as selective inhibitors of prostaglandin G/H synthase-2 by determining the effect of the compounds on the conversion of [^14 C]arachidonic acid to products by prostaglandin G/H synthase-2 purified from sheep placenta. This enzyme shares immunoreactivity and sequence homology with human prostaglandin G/H synthase-2. The effects of the compounds on prostaglandin G/H synthase-1 purified from ram seminal vesicles is used for the evaluation of inhibitory selectivity.
(§2) Each compound was preincubated for 15 minutes at room temperature in 50 mM sodium phosphate buffer at pH 7.4 containing 3.33 mM reduced glutathione, 2.67 mM epinephrine and 6.6% dimethylsulfoxide with sufficient enzyme to cause approximately 30% conversion of substrate to products after 15 minutes incubation in the absence of inhibitory compounds. Reactions with 24 μM arachidonic acid are initiated by the addition of a one third volume of 50 mM sodium phosphate buffer, pH 7.4, containing 3.33 mM reduced glutathione, 2.67 mM epinephrineβ and [^14 C] arachidonic acid.
(§3) Reactions were terminated after 15 minutes incubation at room temperature by the addition of 1.875 volumes of methanol:acetic acid (100:0.1) containing 0.5 mg/ml triphenylphosphine. The reaction products were separated from the unconverted substrate by high performance liquid chromatography and quantified by on-line radiometric detection. Compound effects were computed as percent inhibition of blank-adjusted mean product formation in uninhibited incubations.

In experiment [2] the target is T2, prostaglandin G/H synthase-2 (Ovis aries, UniProt P79208).
T2 construct: purified from sheep placenta; from tissue; host or cells: sheep placenta
Kind of experiment: Inhibition of prostaglandin G/H synthase-2 (conversion of [14C]arachidonic acid to products). Format: biochemical. As to conditions: enzyme purified from sheep placenta, 15 min preincubation, pH 7.4, room temperature. Here is the method: as §1, §2, §3

Where [3] appears, read: pH 7.4, read-out: % Inhibition of PGHS-1 at 10 μM, 10 μM.
[4] abbreviates: pH 7.4, read-out: % Inhibition of PGHS-1 at 100 μM, 100 μM.
Where [5] appears, read: pH 7.4, read-out: % Inhibition of PGHS-2 at 10 μM, 10 μM.
Where [6] appears, read: pH 7.4, read-out: % Inhibition of PGHS-2 at 100 μM, 100 μM.
The mark [7] stands for this setting: pH 7.4, 10 μM, read-out: % Inhibition of PGHS-1 at 10 μM.
[8] abbreviates: pH 7.4, 100 μM, read-out: % Inhibition of PGHS-1 at 100 μM.
Where [9] appears, read: pH 7.4, 10 μM, read-out: % Inhibition of PGHS-2 at 10 μM.
Setting [10] is: pH 7.4, 100 μM, read-out: % Inhibition of PGHS-2 at 100 μM.

Values joined by “and” are separate entries in the source; they are usually repeats but may differ in a detail not shown here. Equal values may be shown once. Read-outs that look alike come from different tables or passages of the source. Some results are limits rather than exact numbers.

T2 sequence (P79208 17-603): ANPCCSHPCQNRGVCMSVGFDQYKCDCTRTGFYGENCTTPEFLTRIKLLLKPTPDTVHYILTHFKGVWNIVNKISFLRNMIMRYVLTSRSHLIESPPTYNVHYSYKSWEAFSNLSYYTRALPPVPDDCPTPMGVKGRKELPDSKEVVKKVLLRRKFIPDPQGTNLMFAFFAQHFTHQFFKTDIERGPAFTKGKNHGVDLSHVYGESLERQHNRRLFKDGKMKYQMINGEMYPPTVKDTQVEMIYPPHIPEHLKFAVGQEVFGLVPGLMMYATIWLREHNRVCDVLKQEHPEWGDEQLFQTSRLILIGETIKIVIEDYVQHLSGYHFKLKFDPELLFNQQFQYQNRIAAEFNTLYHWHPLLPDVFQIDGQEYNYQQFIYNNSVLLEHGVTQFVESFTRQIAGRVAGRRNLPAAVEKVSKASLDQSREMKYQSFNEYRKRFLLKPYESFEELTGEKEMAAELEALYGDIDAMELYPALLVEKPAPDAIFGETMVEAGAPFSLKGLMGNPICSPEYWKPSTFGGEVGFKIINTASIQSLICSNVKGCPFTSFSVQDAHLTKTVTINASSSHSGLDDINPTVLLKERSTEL

Consider `COC(=O)CSC(c1ccccc1)c1ccccc1` [Example 1, Methyl [(diphenylmethyl)thio]acetate], for which the inhibition at 10 µM in experiment [1] (setting [3]) worked out at 20%; in experiment [2] (setting [5]), 56%. Also, the inhibition at 100 µM amounted to 42% in experiment [1] (setting [4]) and 84% in experiment [2] (setting [6]).

As for `COC(=O)CSC(c1ccc(OC)cc1)c1ccc(OC)cc1` [Example 2, Methyl [[bis-(4-methoxyphenyl)methyl]thio]acetate], the “% Inhibition of PGHS-1 at 100 μM” value in experiment [1] stood at 13%. The inhibition at 10 µM is less than 10% in experiment [1] (setting [3]) and 23% in experiment [2] (setting [5]). Besides, the inhibition at 100 µM in experiment [1] (setting [4]) was less than 10%; in experiment [2] (setting [6]), 79%. Further, the “% Inhibition of PGHS-2 at 10 μM” value in experiment [2] was 34%. Also, the “% Inhibition of PGHS-2 at 100 μM” value in experiment [2] is 74%.

Take `COC(=O)CSC(c1ccc(Cl)cc1)c1ccc(Cl)cc1` [Example 3, Methyl [[bis-(4-chlorophenyl)methyl]thio]acetate]: the “% Inhibition of PGHS-2 at 100 μM” value in experiment [2] came out at 46%. Besides, the inhibition at 100 µM in experiment [2] (setting [6]) worked out at 45%.

Turning to `COC(=O)CSC(c1ccc(N(C)C)cc1)c1ccc(N(C)C)cc1` [Example 4, Methyl [[bis-(4-dimethylaminophenyl)methyl]thio]acetate], in experiment [1] (10 μM), the “% Inhibition of PGHS-1 at 10 μM” value was 31%. The “% Inhibition of PGHS-1 at 100 μM” value in experiment [1] came out at 72%. Further, the inhibition at 10 µM was 42% in experiment [1] (setting [7]) and 86% in experiment [2] (setting [9]). The inhibition at 100 µM in experiment [1] (setting [8]) is 68%; in experiment [2] (setting [10]) it was 96%. Also, the “% Inhibition of PGHS-2 at 10 μM” value in experiment [2] was 92%. The “% Inhibition of PGHS-2 at 100 μM” value in experiment [2] is 99% and 92%.

`COC(=O)CSC(c1ccc(F)cc1)c1ccc(F)cc1` [Example 5, Methyl [[bis-(4-fluorophenyl)methyl]thio]acetate]: the inhibition at 10 µM in experiment [1] (setting [3]) was less than 10%. The inhibition at 100 µM in experiment [1] (setting [4]) is less than 10%; in experiment [2] (setting [6]) it was 52%. Besides, the “% Inhibition of PGHS-2 at 100 μM” value in experiment [2] came out at 40%.

Consider `COC(=O)CSC(c1ccc(C)cc1)c1ccc(C)cc1` [Example 6, Methyl [[bis-(4-methylphenyl)methyl]thio]acetate], for which the values for the inhibition at 10 µM in experiment [1] (setting [3]) and in experiment [2] (setting [5]) were less than 10% and 11%, respectively. Further, the inhibition at 100 µM in experiment [1] (setting [4]) is less than 10%; in experiment [2] (setting [6]), 52%.

With `COC(=O)CSC(c1ccccc1Cl)c1ccccc1Cl` [Example 7, Methyl [[bis-(2-chlorophenyl)methyl]thio]acetate], the inhibition at 10 µM in experiment [1] (setting [3]) and in experiment [2] (setting [5]) was less than 10% each time. Moreover, the inhibition at 100 µM in experiment [1] (setting [4]) was less than 10%; in experiment [2] (setting [6]) it was 37%.

Consider `COC(=O)CSC(c1ccccc1OC)c1ccccc1OC` [Example 8, Methyl [[bis-(2-methoxyphenyl)methyl]thio]acetate], for which, in experiment [2] (setting [5]), the inhibition at 10 µM was determined as 14%. For the same compound, in experiment [2] (setting [6]), the inhibition at 100 µM amounted to 77%.

Turning to `COC(=O)CSC(c1cccs1)c1cccs1` [Example 9, Methyl [[bis-(2-thienyl)methyl]thio]acetate], the inhibition at 10 µM in experiment [1] (setting [7]) and in experiment [2] (setting [9]) was less than 10% each time. Also, the values for the inhibition at 100 µM in experiment [1] (setting [8]) and in experiment [2] (setting [10]) were less than 10% and 33%, respectively.

Consider `COC(=O)CSC1c2ccccc2-c2ccccc21` [Example 10, Methyl (9-fluorenylthio)acetate], for which the inhibition at 10 µM in experiment [1] (setting [7]) was less than 10%; in experiment [2] (setting [9]) it was 30%. The inhibition at 100 µM stood at 18% in experiment [1] (setting [8]) and 77% in experiment [2] (setting [10]).

Consider `COC(=O)CSC(c1ccccc1)(c1ccccc1)c1ccccc1` [Example 11, Methyl [(triphenylmethyl)thio]acetate], for which the figures for the inhibition at 10 µM in experiment [1] (setting [7]) and in experiment [2] (setting [9]) were less than 10% and 29%, respectively. For the same compound, the results for the inhibition at 100 µM in experiment [1] (setting [8]) and in experiment [2] (setting [10]) were 10% and 62%, respectively.

Consider `COC(=O)CSC(c1ccc(OC)cc1)(c1ccc(OC)cc1)c1ccc(OC)cc1` [Example 12, Methyl [[(tris-4-methoxyphenyl)methyl]thio]acetate], for which the “% Inhibition of PGHS-1 at 100 μM” value in experiment [1] worked out at 17%. In addition, the inhibition at 100 µM in experiment [1] (setting [8]) is 32%; in experiment [2] (setting [10]), 80%. The “% Inhibition of PGHS-2 at 10 μM” value in experiment [2] came out at 83%. In addition, the “% Inhibition of PGHS-2 at 100 μM” value in experiment [2] stood at 86%. Moreover, in experiment [2] (setting [9]), the inhibition at 10 µM is 79%.

With `COC(=O)CSC(c1ccccc1)(c1ccc(OC)cc1)c1ccc(OC)cc1` [Example 13, Methyl [[(bis-4-methoxyphenyl)phenylmethyl]thio]acetate], the inhibition at 10 µM in experiment [1] (setting [7]) is less than 10%; in experiment [2] (setting [9]) it was 41%. The inhibition at 100 µM in experiment [1] (setting [8]) was less than 10%; in experiment [2] (setting [10]), 49%.

With `COC(=O)CSC1(c2ccccc2)c2ccccc2-c2ccccc21` [Example 14, Methyl (9-phenylfluoren-9-yl-thio)acetate], the values for the inhibition at 10 µM in experiment [1] (setting [7]) and in experiment [2] (setting [9]) were less than 10% and 14%, respectively. Also, the values for the inhibition at 100 µM in experiment [1] (setting [8]) and in experiment [2] (setting [10]) were less than 10% and 50%, respectively.

Consider `COC(=O)CSC1c2ccccc2C=Cc2ccccc21` [Example 15, Methyl (5H-dibenzo[a,d]cyclohepten-5-yl-thio)acetate], for which the inhibition at 10 µM in experiment [1] (setting [7]) and in experiment [2] (setting [9]) was less than 10% throughout. Further, the figures for the inhibition at 100 µM in experiment [1] (setting [8]) and in experiment [2] (setting [10]) were less than 10% and 31%, respectively.

Consider `COC(=O)CSC1c2ccccc2Oc2ccccc21` [Example 16, Methyl (xanthen-9-yl-thio)acetate], for which the inhibition at 10 µM in experiment [1] (setting [7]) is less than 10%; in experiment [2] (setting [9]), 41%. The “% Inhibition of PGHS-2 at 10 μM” value in experiment [2] stood at 50%. Also, the “% Inhibition of PGHS-2 at 100 μM” value in experiment [2] is recorded as 85%. The inhibition at 100 µM in experiment [2] (setting [10]) was determined as 78%.

As to `COC(=O)CSC1c2ccccc2CCc2ccccc21` [Example 17, Methyl (10, 11-dihydro-5H-dibenzo[a,d]cyclohepten-5-yl-thio)acetate], the inhibition at 10 µM in experiment [1] (setting [7]) was less than 10%; in experiment [2] (setting [9]) it was 8%. In addition, the inhibition at 100 µM in experiment [1] (setting [8]) was less than 10%; in experiment [2] (setting [10]), 17%.
